# According to patent US12691112B2, “FGFR tyrosine kinase inhibitors for the treatment of urothelial carcinoma” (Janssen Pharmaceutica NV, priority 2019, dated 2026):
# Like-named read-outs stand apart in the source and are kept apart here.
# Tested on: metastatic or surgically unresectable urothelial cancer harboring select FGFR genetic alterations
# Details: chemo relapsed/refractory
# Source text: The study comprises a Screening Phase (molecular screening at any time prior to first dose and study screening within 30 days of first dose), a treatment phase, and a post-treatment follow-up phase. The treatment phase comprises the period from first dose until the end-of-treatment visit. The follow-up phase extends until the subject has died, withdraws consent, is lost to follow-up, or the end of study, whichever comes first.
# Included patients were adults with measurable urothelial cancer per Response Evaluation Criteria in Solid Tumors version 1.1.
# Patients were required to have at least 1 FGFR2/FGFR3 mutation or fusion per central lab testing of RNA from formalin-fixed, paraffin-embedded tumor samples, using a custom reverse transcriptase polymerase chain reaction assay.
# Patients were contacted every 12 weeks for survival assessment.
# The study was designed to enroll 180 patients with specified FGFR alterations. Of these, ≥88 were required in the selected regimen. […] Responses were assessed by investigators and an independent radiological review committee. Progression-free survival and overall survival were estimated using Kaplan-Meier product limit method. Data from patients who were progression free and alive or with unknown status were censored at last tumor assessment. Efficacy end points were analysed at primary analysis cut-off.
# [1] = 6 mg QD, Any FGFR alterations, n=73
# [2] = 6 mg QD, FGFR fusions (excluding mutations), 2 responders
# [3] = 6 mg QD, FGFR fusions (excluding mutations), n=10
# [4] = 6 mg QD, FGFR mutations (excluding fusions), 22 responders
# [5] = 6 mg QD, FGFR mutations (excluding fusions), n=59
# [6] = 6 mg QD, FGFR mutations and fusions, 3 responders
# [7] = 6 mg QD, FGFR mutations and fusions, n=4
# [8] = 6 mg QD, Fusion: FGFR2-CASP7/FGFR3-BAIAP2L1, n=1
# [9] = 6 mg QD, Mutation and fusion: FGFR3-G370C/FGFR2-BICC1, n=1
# [10] = 6 mg QD, Mutation and fusion: FGFR3-G370C/FGFR3-TACC3 V1, n=1
# [11] = 6 mg QD, Mutation and fusion: FGFR3-R248C/FGFR3-S249C/FGFR3-TACC3 V1, n=1
# [12] = 6 mg QD, Mutation and fusion: FGFR3-R248C/FGFR3-TACC3 V1, n=1
# [13] = 6 mg QD, Mutation: FGFR3-G370C/FGFR3-S249C, n=1
# [14] = 6 mg QD, Mutation: FGFR3-R248C/FGFR3-Y373C, n=1
# [15] = 8 mg QD, Any FGFR alterations, n=87
# [16] = 8 mg QD, FGFR fusions (excluding mutations), 4 responders
# [17] = 8 mg QD, FGFR fusions (excluding mutations), n=23
# [18] = 8 mg QD, FGFR mutations (excluding fusions), 31 responders
# [19] = 8 mg QD, FGFR mutations (excluding fusions), n=64
# [20] = 8 mg QD, Fusion: FGFR2-CASP7/FGFR3-TACC3 V3, n=1
# [21] = 10 mg 7 on/7 off, Any FGFR alterations, n=29
# [22] = 10 mg 7 on/7 off, FGFR fusions (excluding mutations), n=2
# [23] = 10 mg 7 on/7 off, FGFR mutations (excluding fusions), 5 responders
# [24] = 10 mg 7 on/7 off, FGFR mutations (excluding fusions), n=24
# [25] = 10 mg 7 on/7 off, FGFR mutations and fusions, 1 responder
# [26] = 10 mg 7 on/7 off, FGFR mutations and fusions, n=3
# [27] = 10 mg 7 on/7 off, Mutation and fusion: FGFR3-R248C/FGFR3-TACC3 V1, n=1
# [28] = 10 mg 7 on/7 off, Mutation and fusion: FGFR3-S249C/FGFR3-BAIAP2L1, n=1
# [29] = 10 mg 7 on/7 off, Mutation and fusion: FGFR3-S249C/FGFR3-Y373C/FGFR2-CASP7/FGFR3-BAIAP2L1/FGFR3-TACC3 V1/FGFR3-TACC3 V3, n=1
compound,measurement,setting,value
"COc1cc(OC)cc(N(CCNC(C)C)c2ccc3ncc(-c4cnn(C)c4)nc3c2)c1 [erdafitinib, N-(3,5-dimethoxy-phenyl)-N′-(1-methylethyl)-N-[3-(1-methyl-1H-pyrazol-4-yl)quinoxalin-6-yl]ethane-1,2-diamine]",Confirmed complete response (CR),[1],3 (4.1%)
same,Confirmed partial response (PR),[1],24 (32.9%)
same,Disease control rate (CR + PR + SD),[1],55 (75.3%)
same,Inevaluable,[1],4 (5.5%)
same,Progressive disease (PD),[1],14 (19.2%)
same,"6-month progression-free survival rate (95% CI), among responders",[2],"0.50 (0.01, 0.91)"
same,"9-month progression-free survival rate (95% CI), among responders",[2],"0.50 (0.01, 0.91)"
same,"12-month progression-free survival rate (95% CI), among responders",[2],"0.50 (0.01, 0.91)"
same,Confirmed complete response (CR),[3],0%
same,Confirmed partial response (PR),[3],2 (20.0%)
same,Disease control rate (CR + PR + SD),[3],9 (90.0%)
same,Inevaluable,[3],1 (10.0%)
same,Objective response rate (CR + PR),[3],2 (20.0%)
same,Progressive disease (PD),[3],0%
same,"6-month progression-free survival rate (95% CI), among responders",[4],"0.41 (0.21, 0.60)"
same,"9-month progression-free survival rate (95% CI), among responders",[4],"0.27 (0.11, 0.46)"
same,"12-month progression-free survival rate (95% CI), among responders",[4],"0.18 (0.06, 0.36)"
same,Confirmed complete response (CR),[5],2 (3.4%)
same,Confirmed partial response (PR),[5],20 (33.9%)
same,Disease control rate (CR + PR + SD),[5],43 (72.9%)
same,Inevaluable,[5],2 (3.4%)
same,Objective response rate (CR + PR),[5],22 (37.3%)
same,Progressive disease (PD),[5],14 (23.7%)
same,"6-month progression-free survival rate (95% CI), among responders",[6],"0.67 (0.05, 0.95)"
same,"9-month progression-free survival rate (95% CI), among responders",[6],"0.67 (0.05, 0.95)"
same,"12-month progression-free survival rate (95% CI), among responders",[6],"0.33 (0.01, 0.77)"
same,Confirmed complete response (CR),[7],1 (25.0%)
same,Confirmed partial response (PR),[7],2 (50.0%)
same,Disease control rate (CR + PR + SD),[7],3 (75.0%)
same,Inevaluable,[7],1 (25.0%)
same,Objective response rate (CR + PR),[7],3 (75.0%)
same,Progressive disease (PD),[7],0%
same,Confirmed complete response (CR),[8],0%
same,Confirmed partial response (PR),[8],0%
same,Disease control rate (CR + PR + SD),[8],1 (100.0%)
same,Inevaluable,[8],0%
same,Objective response rate (CR + PR),[8],0%
same,Progressive disease (PD),[8],0%
same,Confirmed complete response (CR),[9],1 (100.0%)
same,Confirmed partial response (PR),[9],0%
same,Disease control rate (CR + PR + SD),[9],1 (100.0%)
same,Inevaluable,[9],0%
same,Objective response rate (CR + PR),[9],1 (100.0%)
same,Progressive disease (PD),[9],0%
same,Confirmed complete response (CR),[10],0%
same,Confirmed partial response (PR),[10],1 (100.0%)
same,Disease control rate (CR + PR + SD),[10],1 (100.0%)
same,Inevaluable,[10],0%
same,Objective response rate (CR + PR),[10],1 (100.0%)
same,Progressive disease (PD),[10],0%
same,Confirmed complete response (CR),[11],0%
same,Confirmed partial response (PR),[11],1 (100.0%)
same,Disease control rate (CR + PR + SD),[11],1 (100.0%)
same,Inevaluable,[11],0%
same,Objective response rate (CR + PR),[11],1 (100.0%)
same,Progressive disease (PD),[11],0%
same,Confirmed complete response (CR),[12],0%
same,Confirmed partial response (PR),[12],0%
same,Disease control rate (CR + PR + SD),[12],0%
same,Inevaluable,[12],1 (100.0%)
same,Objective response rate (CR + PR),[12],0%
same,Progressive disease (PD),[12],0%
same,Confirmed complete response (CR),[13],0%
same,Confirmed partial response (PR),[13],0%
same,Disease control rate (CR + PR + SD),[13],1 (100.0%)
same,Inevaluable,[13],0%
same,Objective response rate (CR + PR),[13],0%
same,Progressive disease (PD),[13],0%
same,Confirmed complete response (CR),[14],0%
same,Confirmed partial response (PR),[14],1 (100.0%)
same,Disease control rate (CR + PR + SD),[14],1 (100.0%)
same,Inevaluable,[14],0%
same,Objective response rate (CR + PR),[14],1 (100.0%)
same,Progressive disease (PD),[14],0%
same,Disease control rate (CR + PR + SD),[15],69 (79.3%)
same,Inevaluable,[15],2 (2.3%)
same,Progressive disease (PD),[15],16 (18.4%)
same,"6-month progression-free survival rate (95% CI), among responders",[16],"0.50 (0.06, 0.84)"
same,"9-month progression-free survival rate (95% CI), among responders",[16],"0.50 (0.06, 0.84)"
same,Confirmed complete response (CR),[17],0%
same,Confirmed partial response (PR),[17],4 (17.4%)
same,Disease control rate (CR + PR + SD),[17],15 (65.2%)
same,Inevaluable,[17],1 (4.3%)
same,Progressive disease (PD),[17],7 (30.4%)
same,"6-month progression-free survival rate (95% CI), among responders",[18],"0.42 (0.24, 0.59)"
same,"9-month progression-free survival rate (95% CI), among responders",[18],"0.19 (0.07, 0.37)"
same,"12-month progression-free survival rate (95% CI), among responders",[18],"0.19 (0.07, 0.37)"
same,Confirmed complete response (CR),[19],3 (4.7%)
same,Confirmed partial response (PR),[19],28 (43.8%)
same,Disease control rate (CR + PR + SD),[19],54 (84.4%)
same,Inevaluable,[19],1 (1.6%)
same,Progressive disease (PD),[19],9 (14.1%)
same,Confirmed complete response (CR),[20],0%
same,Confirmed partial response (PR),[20],0%
same,Disease control rate (CR + PR + SD),[20],0%
same,Inevaluable,[20],1 (100.0%)
same,Objective response rate (CR + PR),[20],0%
same,Progressive disease (PD),[20],0%
same,Confirmed complete response (CR),[21],1 (3.4%)
same,Confirmed partial response (PR),[21],5 (17.2%)
same,Disease control rate (CR + PR + SD),[21],23 (79.3%)
same,Inevaluable,[21],2 (6.9%)
same,Progressive disease (PD),[21],4 (13.8%)
same,Confirmed complete response (CR),[22],0%
same,Confirmed partial response (PR),[22],0%
same,Disease control rate (CR + PR + SD),[22],1 (50.0%)
same,Inevaluable,[22],0%
same,Objective response rate (CR + PR),[22],0%
same,Progressive disease (PD),[22],1 (50.0%)
same,"6-month progression-free survival rate (95% CI), among responders",[23],"0.80 (0.20, 0.97)"
same,"9-month progression-free survival rate (95% CI), among responders",[23],"0.80 (0.20, 0.97)"
same,"12-month progression-free survival rate (95% CI), among responders",[23],"0.60 (0.13, 0.88)"
same,Confirmed complete response (CR),[24],1 (4.2%)
same,Confirmed partial response (PR),[24],4 (16.7%)
same,Disease control rate (CR + PR + SD),[24],20 (83.3%)
same,Inevaluable,[24],2 (8.3%)
same,Objective response rate (CR + PR),[24],5 (20.8%)
same,Progressive disease (PD),[24],2 (8.3%)
same,"6-month progression-free survival rate (95% CI), among responders",[25],"0 (NE, NE)"
same,"9-month progression-free survival rate (95% CI), among responders",[25],"0 (NE, NE)"
same,"12-month progression-free survival rate (95% CI), among responders",[25],"0 (NE, NE)"
same,Confirmed complete response (CR),[26],0%
same,Confirmed partial response (PR),[26],1 (33.3%)
same,Disease control rate (CR + PR + SD),[26],2 (66.7%)
same,Inevaluable,[26],0%
same,Objective response rate (CR + PR),[26],1 (33.3%)
same,Progressive disease (PD),[26],1 (33.3%)
same,Confirmed complete response (CR),[27],0%
same,Confirmed partial response (PR),[27],1 (100.0%)
same,Disease control rate (CR + PR + SD),[27],1 (100.0%)
same,Inevaluable,[27],0%
same,Objective response rate (CR + PR),[27],1 (100.0%)
same,Progressive disease (PD),[27],0%
same,Confirmed complete response (CR),[28],0%
same,Confirmed partial response (PR),[28],0%
same,Disease control rate (CR + PR + SD),[28],0%
same,Inevaluable,[28],0%
same,Objective response rate (CR + PR),[28],0%
same,Progressive disease (PD),[28],1 (100.0%)
same,Confirmed complete response (CR),[29],0%
same,Confirmed partial response (PR),[29],0%
